Target: T1, KRAS G12C 1-169, his-tagged protein, GDP-loaded (Homo sapiens, UniProt P01116, G12C)
T1 construct: KRAS G12C 1-169, his-tagged protein, GDP-loaded
Assay: Biochemical assay: covalent modification of KRAS G12C measured by mass spectrometry (RapidFire/TOF or Q-Exactive)
Conditions: covalent binding to KRAS G12C
How it was run: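 GDP-loaded his-tagged KRAS G12C 1-169 at 2 μM in 20 mM Hepes, 150 mM NaCl, 1 mM MgCl2 incubated at room temperature with compound (10, 30 or 100 μM final, 2% DMSO) for 30 min, 2 h or 24 h, then quenched with formic acid. Intact-protein LC-MS (RapidFire/TOF or Q-Exactive) with deconvolution quantified modified versus unmodified protein.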

Row | Compound | Binding % (compounds of structure (I)) | Binding % (compounds of structure (II))
1 | C=CC(=O)N1CCN(c2nc(OCCc3ccc(F)cn3)nc3c(F)c(-c4c(O)cccc4F)c(Cl)cc23)CC1 [Example I-100, 1-(4-(6-chloro-8-fluoro-7-(2-fluoro-6-hydroxyphenyl)-2-(2-(5-fluoro-pyridin-2-yl)ethoxy)quinazolin-4-yl)piperazin-1-yl) prop-2-en-1-one] | +++ (+++ indicates binding activity greater than 90%) | –
2 | C=CC(=O)N1CCN(c2nc(NCCP(C)(C)=O)nc3c(F)c(-c4c(O)cccc4F)c(Cl)cc23)CC1 [Example I-208, 1-(4-(6-chloro-2-(2-(dimethyl-phosphoryl)ethylamino)-8-fluoro-7-(2-fluoro-6-hydroxyphenyl)quinazolin-4-yl)piperazin-1-yl) prop-2-en-1-one] | ++ (++ indicates binding activity from 50 to 90%) | –
3 | C=CC(=O)N1CCN(c2nc(NCCc3ncccn3)nc3c(F)c(-c4c(O)cccc4F)c(Cl)cc23)CC1 [Example I-171, 1-(4-(6-chloro-8-fluoro-7-(2-fluoro-6-hydroxyphenyl)-2-((2-(pyrimidin-2-yl)ethyl)amino)quinazolin-4-yl)piperazin-1-yl) prop-2-en-1-one] | ++ (++ indicates binding activity from 50 to 90%) | –
4 | C=CC(=O)N1CCN(c2nc(OCCc3ncccc3F)nc3c(F)c(-c4c(O)cccc4F)c(Cl)cc23)CC1 [Example I-114, 1-(4-(6-chloro-8-fluoro-7-(2-fluoro-6-hydroxyphenyl)-2-(2-(3-fluoro-pyridin-2-yl)ethoxy)quinazolin-4-yl)piperazin-1-yl) prop-2-en-1-one] | +++ (+++ indicates binding activity greater than 90%) | –
5 | C=CC(=O)N1CCN(c2nc(OCC3CN(c4ncccn4)C3)nc3c(F)c(-c4c(C)ccc5[nH]ncc45)c(Cl)cc23)CC1 [Example I-170, 1-(4-(6-chloro-8-fluoro-7-(5-methyl-1H-indazol-4-yl)-2-((1-(pyrimidin-2-yl)azetidin-3-yl)methoxy)quinazolin-4-yl)piperazin-1-yl) prop-2-en-1-one] | ++ (++ indicates binding activity from 50 to 90%) | –
6 | C=CC(=O)N1CCN(c2nc(N)nc3c(F)c(-c4cc(O)cc5ccccc45)c(Cl)cc23)CC1 [Example I-191, 1-(4-(2-amino-6-chloro-8-fluoro-7-(3-hydroxy-naphthalen-1-yl)quinazolin-4-yl)piperazin-1-yl) prop-2-en-1-one] | +++ (+++ indicates binding activity greater than 90%) | –
7 | C=CC(=O)N1CCN(c2nc(NCCF)nc3c(F)c(-c4cc(O)cc5ccccc45)c(Cl)cc23)CC1 [Example I-61, 1-(4-(6-chloro-8-fluoro-2-(2-fluoroethyl-amino)-7-(3-hydroxy-naphthalen-1-yl)quinazolin-4-yl)piperazin-1-yl)prop-2-en-1-one] | +++ (+++ indicates binding activity greater than 90%) | –
8 | C=CC(=O)N1CCN(c2nc(N3CC4(CCOC4)C3)nc3c(F)c(-c4c(C)ccc5[nH]ncc45)c(Cl)cc23)CC1 [Example I-156, 1-(4-(6-chloro-8-fluoro-7-(5-methyl-1H-indazol-4-yl)-2-(6-oxa-2-azaspiro[3,4]octan-2-yl)quinazolin-4-yl)piperazin-1-yl) prop-2-en-1-one] | +++ (+++ indicates binding activity greater than 90%) | –
9 | C=CC(=O)N1CCN(c2nc(NCCN(CC)CC)nc3c(F)c(-c4c(C)ccc5[nH]ncc45)c(Cl)cc23)CC1 [Example I-161, 1-(4-(6-chloro-2-(2-(diethyl-amino)ethylamino)-8-fluoro-7-(5-methyl-1H-indazol-4-yl)quinazolin-4-yl)piperazin-1-yl) prop-2-en-1-one] | +++ (+++ indicates binding activity greater than 90%) | –
10 | C=CC(=O)Nc1cc(-c2ncnc3c(F)c(-c4c(O)cccc4F)c(Cl)cc23)ccn1 [II-12, N-(4-(6-chloro-8-fluoro-7-(2-fluoro-6-hydroxyphenyl)quinazolin-4-yl)pyridin-2-yl)acrylamide] | – | + (+ indicates binding activity up to 50%)
11 | C=CC(=O)N1CCN(c2nc(OC3CCOCC3)nc3c(F)c(-c4c(O)cccc4F)c(Cl)cc23)CC1 [Example I-18, 1-(4-(6-chloro-8-fluoro-7-(2-fluoro-6-hydroxyphenyl)-2-(tetrahydro-2H-pyran-4-yloxy)quinazolin-4-yl)piperazin-1-yl)prop-2-en-1-one] | +++ (+++ indicates binding activity greater than 90%) | –
12 | C=CC(=O)N1CCN(c2nc(OCCc3cccc(C)n3)nc3c(F)c(-c4c(O)cccc4F)c(Cl)cc23)CC1 [Example I-89, 1-(4-(6-chloro-8-fluoro-7-(2-fluoro-6-hydroxyphenyl)-2-(2-(6-methyl-pyridin-2-yl)ethoxy)quinazolin-4-yl)piperazin-1-yl)prop-2-en-1-one] | +++ (+++ indicates binding activity greater than 90%) | –
13 | C=CC(=O)N1CCN(c2nc(NC3CCN(CC(F)(F)F)CC3)nc3c(F)c(-c4c(O)cccc4F)c(Cl)cc23)CC1 [Example I-21, 1-(4-(6-chloro-8-fluoro-7-(2-fluoro-6-hydroxyphenyl)-2-(1-(2,2,2-trifluoroethyl)piperidin-4-ylamino)quinazolin-4-yl)piperazin-1-yl)prop-2-en-1-one] | + (+ indicates binding activity up to 50%) | –
14 | C=CC(=O)N1CCN(c2nc(NCCc3ccccn3)nc3c(F)c(-c4c(C)ccc5[nH]ncc45)c(Cl)cc23)CC1 [Example I-142, 1-(4-(6-chloro-8-fluoro-7-(5-methyl-1H-indazol-4-yl)-2-(2-(pyridin-2-yl)ethylamino)quinazolin-4-yl)piperazin-1-yl) prop-2-en-1-one] | +++ (+++ indicates binding activity greater than 90%) | –
15 | C=CC(=O)N1CCN(c2nc(OCC3CCN(C4CC4)CC3)nc3c(F)c(-c4c(O)cccc4F)c(Cl)cc23)CC1 [Example I-172, 1-(4-(6-chloro-2-((1-cyclopropyl-piperidin-4-yl)methoxy)-8-fluoro-7-(2-fluoro-6-hydroxyphenyl)quinazolin-4-yl)piperazin-1-yl) prop-2-en-1-one] | +++ (+++ indicates binding activity greater than 90%) | –
16 | C=CC(=O)N1CCC(Nc2ncnc3c(F)c(-c4c(O)cccc4F)c(Cl)cc23)C1 (stereo not shown) [II-9, 1-(3-((6-chloro-8-fluoro-7-(2-fluoro-6-hydroxyphenyl)quinazolin-4-yl)amino)pyrrolidin-1-yl)prop-2-en-1-one] | – | + (+ indicates binding activity up to 50%)
17 | C=CC(=O)N1CCN(c2nc(OCCN3CCCC3=O)nc3c(F)c(-c4c(C)ccc5[nH]ncc45)c(Cl)cc23)CC1 [Example I-1, 1-(2-(4-(4-acryloylpiperazin-1-yl)-6-chloro-8-fluoro-7-(5-methyl-1H-indazol-4-yl)quinazolin-2-yloxy)ethyl) pyrrolidin-2-one] | +++ (+++ indicates binding activity greater than 90%) | –
18 | C=CC(=O)N1CCN(c2nc(OC3CCN(C4CC4)CC3)nc3c(F)c(-c4c(C)ccc5[nH]ncc45)c(Cl)cc23)CC1 [Example I-138] | +++ (+++ indicates binding activity greater than 90%) | –
19 | C=CC(=O)N1CCN(c2nc(NC3CCN(C4CC4)CC3)nc3c(F)c(-c4c(O)cccc4F)c(Cl)cc23)CC1 [Example I-72, 1-(4-(6-chloro-2-(1-cyclopropyl-piperidin-4-ylamino)-8-fluoro-7-(2-fluoro-6-hydroxyphenyl)quinazolin-4-yl)piperazin-1-yl) prop-2-en-1-one] | +++ (+++ indicates binding activity greater than 90%) | –
20 | C=CC(=O)N1CCN(c2nc(OCCN3CCOCC3)nc3c(F)c(-c4c(F)cccc4OC)c(Cl)cc23)CC1 [Example I-39, 1-(4-(6-chloro-8-fluoro-7-(2-fluoro-6-methoxyphenyl)-2-(2-morpholino-ethoxy)quinazolin-4-yl)piperazin-1-yl)prop-2-en-1-one] | +++ (+++ indicates binding activity greater than 90%) | –
21 | C=CC(=O)Nc1ncc(-c2ncnc3c(F)c(-c4c(O)cccc4F)c(Cl)cc23)s1 [II-13, N-(5-(6-chloro-8-fluoro-7-(2-fluoro-6-hydroxyphenyl)quinazolin-4-yl)thiazol-2-yl)acrylamide] | – | ++ (++ indicates binding activity greater than 50% and less than 75%)
22 | C=CC(=O)N1CCN(c2nc(NC3CN(C4CCOCC4)C3)nc3c(F)c(-c4c(O)cccc4F)c(Cl)cc23)CC1 [Example I-185, 1-(4-(6-chloro-8-fluoro-7-(2-fluoro-6-hydroxyphenyl)-2-((1-(tetrahydro-2H-pyran-4-yl)azetidin-3-yl)amino)quinazolin-4-yl)piperazin-1-yl) prop-2-en-1-one] | + (+ indicates binding activity up to 50%) | –
23 | C=CC(=O)N1CCN(c2nc(OC3CN(C(C)C)C3)nc3c(F)c(-c4c(O)cccc4F)c(Cl)cc23)CC1 [Example I-178, 1-(4-(6-chloro-8-fluoro-7-(2-fluoro-6-hydroxyphenyl)-2-((1-isopropyl-azetidin-3-yl)oxy)quinazolin-4-yl)piperazin-1-yl)prop-2-en-1-one] | ++ (++ indicates binding activity from 50 to 90%) | –
24 | C=CC(=O)N1CCN(c2nc(N)nc3c(F)c(-c4c(C)ccc5[nH]ncc45)c(Cl)cc23)CC1 [Example I-189, 1-(4-(2-amino-6-chloro-8-fluoro-7-(5-methyl-1H-indazol-4-yl)quinazolin-4-yl)piperazin-1-yl) prop-2-en-1-one] | ++ (++ indicates binding activity from 50 to 90%) | –
25 | C=CC(=O)N1CCN(c2nc(NC3CCN(CC(F)F)CC3)nc3c(F)c(-c4c(C)ccc5[nH]ncc45)c(Cl)cc23)CC1 [Example I-167, 1-(4-(6-chloro-2-((1-(2,2-difluoroethyl)piperidin-4-yl)amino)-8-fluoro-7-(5-methyl-1H-indazol-4-yl)quinazolin-4-yl)piperazin-1-yl) prop-2-en-1-one] | ++ (++ indicates binding activity from 50 to 90%) | –

Reference: US10829458B2 (Araxes Pharma LLC, priority 2015, dated 2020)
